Assay results as given in the NIST ThermoML archive (doi:10.1016/j.jct.2017.10.012).
Numbers after ± are expanded uncertainties.

Conditions: Liquid, Vibrating tube method

CCCC[n+]1cccc(C)c1.O=S(=O)([N-]S(=O)(=O)C(F)(F)F)C(F)(F)F
mass density (278.15 K, 100 kPa): 1431.5 ± 0.7 kg/m3
mass density (278.15 K, 101.33 kPa): 1430.9 ± 0.5 kg/m3
mass density (278.15 K, 1000 kPa): 1432.1 ± 0.7 kg/m3
mass density (278.15 K, 10000 kPa): 1438.3 ± 0.8 kg/m3
mass density (278.15 K, 20000 kPa): 1444.9 ± 0.9 kg/m3
mass density (278.15 K, 40000 kPa): 1457.2 ± 1.1 kg/m3
mass density (278.15 K, 60000 kPa): 1468.5 ± 1.4 kg/m3
mass density (278.15 K, 80000 kPa): 1479.1 ± 1.7 kg/m3
mass density (278.15 K, 100000 kPa): 1488.9 ± 2.1 kg/m3
mass density (278.15 K, 120000 kPa): 1498.1 ± 2.6 kg/m3
mass density (279.15 K, 101.33 kPa): 1429.9 ± 0.5 kg/m3
mass density (280.15 K, 101.33 kPa): 1428.9 ± 0.5 kg/m3
mass density (281.15 K, 101.33 kPa): 1427.9 ± 0.5 kg/m3
mass density (282.15 K, 101.33 kPa): 1427 ± 0.5 kg/m3
mass density (283.15 K, 101.33 kPa): 1426 ± 0.5 kg/m3
mass density (284.15 K, 101.33 kPa): 1425 ± 0.5 kg/m3
mass density (285.15 K, 101.33 kPa): 1424 ± 0.5 kg/m3
mass density (286.15 K, 101.33 kPa): 1423.1 ± 0.5 kg/m3
mass density (287.15 K, 101.33 kPa): 1422.1 ± 0.5 kg/m3
mass density (288.15 K, 101.33 kPa): 1421.2 ± 0.5 kg/m3
mass density (289.15 K, 101.33 kPa): 1420.2 ± 0.5 kg/m3
mass density (290.15 K, 101.33 kPa): 1419.3 ± 0.5 kg/m3
mass density (291.15 K, 101.33 kPa): 1418.3 ± 0.5 kg/m3
mass density (292.15 K, 101.33 kPa): 1417.4 ± 0.5 kg/m3
mass density (293.15 K, 101.33 kPa): 1416.5 ± 0.5 kg/m3
mass density (294.15 K, 101.33 kPa): 1415.6 ± 0.5 kg/m3
mass density (295.15 K, 101.33 kPa): 1414.6 ± 0.5 kg/m3
mass density (296.15 K, 101.33 kPa): 1413.7 ± 0.5 kg/m3
mass density (297.15 K, 101.33 kPa): 1412.8 ± 0.5 kg/m3
mass density (298.15 K, 100 kPa): 1413.3 ± 0.7 kg/m3
mass density (298.15 K, 101.33 kPa): 1411.9 ± 0.5 kg/m3
mass density (298.15 K, 1000 kPa): 1414 ± 0.7 kg/m3
mass density (298.15 K, 10000 kPa): 1420.4 ± 0.8 kg/m3
mass density (298.15 K, 20000 kPa): 1427.3 ± 0.9 kg/m3
mass density (298.15 K, 40000 kPa): 1440.1 ± 1.1 kg/m3
mass density (298.15 K, 60000 kPa): 1452 ± 1.4 kg/m3
mass density (298.15 K, 80000 kPa): 1463 ± 1.7 kg/m3
mass density (298.15 K, 100000 kPa): 1473.5 ± 2.1 kg/m3
mass density (298.15 K, 120000 kPa): 1483.1 ± 2.5 kg/m3
mass density (299.15 K, 101.33 kPa): 1410.9 ± 0.5 kg/m3
mass density (300.15 K, 101.33 kPa): 1410 ± 0.5 kg/m3
mass density (301.15 K, 101.33 kPa): 1409.1 ± 0.5 kg/m3
mass density (302.15 K, 101.33 kPa): 1408.2 ± 0.5 kg/m3
mass density (303.15 K, 101.33 kPa): 1407.3 ± 0.5 kg/m3
mass density (304.15 K, 101.33 kPa): 1406.4 ± 0.5 kg/m3
mass density (305.15 K, 101.33 kPa): 1405.4 ± 0.5 kg/m3
mass density (306.15 K, 101.33 kPa): 1404.5 ± 0.5 kg/m3
mass density (307.15 K, 101.33 kPa): 1403.6 ± 0.5 kg/m3
mass density (308.15 K, 101.33 kPa): 1402.7 ± 0.5 kg/m3
mass density (309.15 K, 101.33 kPa): 1401.8 ± 0.5 kg/m3
mass density (310.15 K, 101.33 kPa): 1400.9 ± 0.5 kg/m3
mass density (311.15 K, 101.33 kPa): 1399.9 ± 0.5 kg/m3
mass density (312.15 K, 101.33 kPa): 1399 ± 0.5 kg/m3
mass density (313.15 K, 100 kPa): 1399.8 ± 0.7 kg/m3
mass density (313.15 K, 101.33 kPa): 1398.1 ± 0.5 kg/m3
mass density (313.15 K, 1000 kPa): 1400.5 ± 0.7 kg/m3
mass density (313.15 K, 10000 kPa): 1407.3 ± 0.8 kg/m3
mass density (313.15 K, 20000 kPa): 1414.5 ± 0.9 kg/m3
mass density (313.15 K, 40000 kPa): 1428 ± 1.1 kg/m3
mass density (313.15 K, 60000 kPa): 1440.3 ± 1.3 kg/m3
mass density (313.15 K, 80000 kPa): 1451.7 ± 1.6 kg/m3
mass density (313.15 K, 100000 kPa): 1462.4 ± 2 kg/m3
mass density (313.15 K, 120000 kPa): 1472.1 ± 2.4 kg/m3
mass density (314.15 K, 101.33 kPa): 1397.2 ± 0.5 kg/m3
mass density (315.15 K, 101.33 kPa): 1396.3 ± 0.5 kg/m3
mass density (316.15 K, 101.33 kPa): 1395.4 ± 0.5 kg/m3
mass density (317.15 K, 101.33 kPa): 1394.5 ± 0.5 kg/m3
mass density (318.15 K, 101.33 kPa): 1393.6 ± 0.5 kg/m3
mass density (319.15 K, 101.33 kPa): 1392.7 ± 0.5 kg/m3
mass density (320.15 K, 101.33 kPa): 1391.8 ± 0.5 kg/m3
mass density (321.15 K, 101.33 kPa): 1390.9 ± 0.5 kg/m3
mass density (322.15 K, 101.33 kPa): 1390 ± 0.5 kg/m3
mass density (323.15 K, 101.33 kPa): 1389.2 ± 0.5 kg/m3
mass density (324.15 K, 101.33 kPa): 1388.2 ± 0.5 kg/m3
mass density (325.15 K, 101.33 kPa): 1387.4 ± 0.5 kg/m3
mass density (326.15 K, 101.33 kPa): 1386.5 ± 0.5 kg/m3
mass density (327.15 K, 101.33 kPa): 1385.6 ± 0.5 kg/m3
mass density (328.15 K, 101.33 kPa): 1384.7 ± 0.5 kg/m3
mass density (329.15 K, 101.33 kPa): 1383.8 ± 0.5 kg/m3
mass density (330.15 K, 101.33 kPa): 1382.9 ± 0.5 kg/m3
mass density (331.15 K, 101.33 kPa): 1382.1 ± 0.5 kg/m3
mass density (332.15 K, 101.33 kPa): 1381.3 ± 0.5 kg/m3
mass density (333.15 K, 100 kPa): 1381.5 ± 0.7 kg/m3
mass density (333.15 K, 101.33 kPa): 1380.4 ± 0.5 kg/m3
mass density (333.15 K, 1000 kPa): 1382.2 ± 0.7 kg/m3
mass density (333.15 K, 10000 kPa): 1389.6 ± 0.8 kg/m3
mass density (333.15 K, 20000 kPa): 1397.2 ± 0.8 kg/m3
mass density (333.15 K, 40000 kPa): 1411.4 ± 1 kg/m3
mass density (333.15 K, 60000 kPa): 1424.4 ± 1.3 kg/m3
mass density (333.15 K, 80000 kPa): 1436.3 ± 1.6 kg/m3
mass density (333.15 K, 100000 kPa): 1447.5 ± 2 kg/m3
mass density (333.15 K, 120000 kPa): 1457.6 ± 2.4 kg/m3
mass density (334.15 K, 101.33 kPa): 1379.4 ± 0.5 kg/m3
mass density (335.15 K, 101.33 kPa): 1378.5 ± 0.5 kg/m3
mass density (336.15 K, 101.33 kPa): 1377.6 ± 0.5 kg/m3
mass density (337.15 K, 101.33 kPa): 1376.7 ± 0.5 kg/m3
mass density (338.15 K, 101.33 kPa): 1375.8 ± 0.5 kg/m3
mass density (339.15 K, 101.33 kPa): 1374.9 ± 0.5 kg/m3
mass density (340.15 K, 101.33 kPa): 1374.1 ± 0.5 kg/m3
mass density (341.15 K, 101.33 kPa): 1373.3 ± 0.5 kg/m3
mass density (342.15 K, 101.33 kPa): 1372.4 ± 0.5 kg/m3
mass density (343.15 K, 101.33 kPa): 1371.4 ± 0.5 kg/m3
mass density (344.15 K, 101.33 kPa): 1370.5 ± 0.5 kg/m3
mass density (345.15 K, 101.33 kPa): 1369.7 ± 0.5 kg/m3
mass density (346.15 K, 101.33 kPa): 1368.7 ± 0.5 kg/m3
mass density (347.15 K, 101.33 kPa): 1367.8 ± 0.5 kg/m3
mass density (348.15 K, 100 kPa): 1367.9 ± 0.7 kg/m3
mass density (348.15 K, 101.33 kPa): 1366.9 ± 0.5 kg/m3
mass density (348.15 K, 1000 kPa): 1368.7 ± 0.7 kg/m3
mass density (348.15 K, 10000 kPa): 1376.4 ± 0.8 kg/m3
mass density (348.15 K, 20000 kPa): 1384.4 ± 0.8 kg/m3
mass density (348.15 K, 40000 kPa): 1399.2 ± 1 kg/m3
mass density (348.15 K, 60000 kPa): 1412.7 ± 1.3 kg/m3
mass density (348.15 K, 80000 kPa): 1425 ± 1.6 kg/m3
mass density (348.15 K, 100000 kPa): 1436.5 ± 1.9 kg/m3
mass density (348.15 K, 120000 kPa): 1446.9 ± 2.3 kg/m3
mass density (349.15 K, 101.33 kPa): 1366 ± 0.5 kg/m3
mass density (350.15 K, 101.33 kPa): 1364.9 ± 0.5 kg/m3
mass density (351.15 K, 101.33 kPa): 1364 ± 0.5 kg/m3
mass density (352.15 K, 101.33 kPa): 1363 ± 0.5 kg/m3
mass density (353.15 K, 101.33 kPa): 1362.2 ± 0.5 kg/m3
mass density (354.15 K, 101.33 kPa): 1361.2 ± 0.5 kg/m3
mass density (355.15 K, 101.33 kPa): 1360.4 ± 0.5 kg/m3
mass density (356.15 K, 101.33 kPa): 1359.4 ± 0.5 kg/m3
mass density (357.15 K, 101.33 kPa): 1358.6 ± 0.5 kg/m3
mass density (358.15 K, 101.33 kPa): 1357.7 ± 0.5 kg/m3
mass density (359.15 K, 101.33 kPa): 1356.8 ± 0.5 kg/m3
mass density (360.15 K, 101.33 kPa): 1356 ± 0.5 kg/m3
mass density (361.15 K, 101.33 kPa): 1355.1 ± 0.5 kg/m3
mass density (362.15 K, 101.33 kPa): 1354.3 ± 0.5 kg/m3
mass density (363.15 K, 101.33 kPa): 1353.4 ± 0.5 kg/m3
mass density (364.15 K, 101.33 kPa): 1352.6 ± 0.5 kg/m3
mass density (365.15 K, 101.33 kPa): 1351.7 ± 0.5 kg/m3
mass density (366.15 K, 101.33 kPa): 1350.9 ± 0.5 kg/m3
mass density (367.15 K, 101.33 kPa): 1350 ± 0.5 kg/m3
mass density (368.15 K, 101.33 kPa): 1349.2 ± 0.5 kg/m3
mass density (369.15 K, 101.33 kPa): 1348.3 ± 0.5 kg/m3
mass density (370.15 K, 101.33 kPa): 1347.5 ± 0.5 kg/m3
mass density (371.15 K, 101.33 kPa): 1346.7 ± 0.5 kg/m3
mass density (372.15 K, 101.33 kPa): 1345.8 ± 0.5 kg/m3
mass density (373.15 K, 100 kPa): 1346.3 ± 5 kg/m3
mass density (373.15 K, 101.33 kPa): 1345 ± 0.5 kg/m3
mass density (373.15 K, 1000 kPa): 1346.5 ± 3 kg/m3
mass density (373.15 K, 10000 kPa): 1354.8 ± 3 kg/m3
mass density (373.15 K, 20000 kPa): 1363.4 ± 3 kg/m3
mass density (373.15 K, 40000 kPa): 1379.2 ± 3.1 kg/m3
mass density (373.15 K, 60000 kPa): 1393.5 ± 3.2 kg/m3
mass density (373.15 K, 80000 kPa): 1406.6 ± 3.3 kg/m3
mass density (373.15 K, 100000 kPa): 1418.7 ± 3.4 kg/m3
mass density (373.15 K, 120000 kPa): 1429.9 ± 3.6 kg/m3
mass density (398.15 K, 100 kPa): 1324.8 ± 5 kg/m3
mass density (398.15 K, 1000 kPa): 1324.6 ± 3 kg/m3
mass density (398.15 K, 10000 kPa): 1333.5 ± 3 kg/m3
mass density (398.15 K, 20000 kPa): 1342.9 ± 3 kg/m3
mass density (398.15 K, 40000 kPa): 1359.8 ± 3.1 kg/m3
mass density (398.15 K, 60000 kPa): 1374.9 ± 3.2 kg/m3
mass density (398.15 K, 80000 kPa): 1388.7 ± 3.3 kg/m3
mass density (398.15 K, 100000 kPa): 1401.4 ± 3.4 kg/m3
mass density (398.15 K, 120000 kPa): 1413.4 ± 3.6 kg/m3
